Results on five substances are retold here after patent US7820379B2, “Process for high throughput screening of CpG-based immuno-agonist/antagonist” (Coley Pharmaceutical GmbH, priority 2000, dated 2010).

Common to all, as to assay type: cell-based
One data set deals with murine splenocytes. Briefly: IL-12 production in murine splenocytes. To be noted: ODN titration, after 8 hours. The source says: (§1) By iterative examination of the flanking sequences surrounding CG dinucleotides, CpG-motifs have been identified. Paradoxically, or by twist of nature, the human optimal CpG-motif, GTCGTT (SEQ ID NO:66), is different from the murine motif, GACGTT (SEQ ID NO:129). Human peripheral blood mononuclear cells (PBMC) (FIG. 10A) and murine splenocytes (FIG. 10B) were stimulated with ODN 2006 (filled circle, […], SEQ ID NO:112), ODN 2006-GC (open circle), ODN 1668 (filled triangle, […], SEQ ID NO:84) or ODN 1668-GC (open triangle, […], SEQ ID NO:85) at indicated concentrations and IL-12 production was monitored after 8 hours. […] It should also be noted that the Kac (concentration of half-maximal activation) of murine splenocytes for 1668 was greater than human PBMC for 2006 (compare FIG. 10A to FIG. 10B).

The target in a further data set is T1, hTLR8 (Homo sapiens, UniProt Q9NR97).
T1 construct: codes for a protein of 1041 amino acids; expressed in transfected cells; host or cells: human 293 fibroblasts (ATCC CRL-1573), transient
T1 sequence (Q9NR97 27-1041): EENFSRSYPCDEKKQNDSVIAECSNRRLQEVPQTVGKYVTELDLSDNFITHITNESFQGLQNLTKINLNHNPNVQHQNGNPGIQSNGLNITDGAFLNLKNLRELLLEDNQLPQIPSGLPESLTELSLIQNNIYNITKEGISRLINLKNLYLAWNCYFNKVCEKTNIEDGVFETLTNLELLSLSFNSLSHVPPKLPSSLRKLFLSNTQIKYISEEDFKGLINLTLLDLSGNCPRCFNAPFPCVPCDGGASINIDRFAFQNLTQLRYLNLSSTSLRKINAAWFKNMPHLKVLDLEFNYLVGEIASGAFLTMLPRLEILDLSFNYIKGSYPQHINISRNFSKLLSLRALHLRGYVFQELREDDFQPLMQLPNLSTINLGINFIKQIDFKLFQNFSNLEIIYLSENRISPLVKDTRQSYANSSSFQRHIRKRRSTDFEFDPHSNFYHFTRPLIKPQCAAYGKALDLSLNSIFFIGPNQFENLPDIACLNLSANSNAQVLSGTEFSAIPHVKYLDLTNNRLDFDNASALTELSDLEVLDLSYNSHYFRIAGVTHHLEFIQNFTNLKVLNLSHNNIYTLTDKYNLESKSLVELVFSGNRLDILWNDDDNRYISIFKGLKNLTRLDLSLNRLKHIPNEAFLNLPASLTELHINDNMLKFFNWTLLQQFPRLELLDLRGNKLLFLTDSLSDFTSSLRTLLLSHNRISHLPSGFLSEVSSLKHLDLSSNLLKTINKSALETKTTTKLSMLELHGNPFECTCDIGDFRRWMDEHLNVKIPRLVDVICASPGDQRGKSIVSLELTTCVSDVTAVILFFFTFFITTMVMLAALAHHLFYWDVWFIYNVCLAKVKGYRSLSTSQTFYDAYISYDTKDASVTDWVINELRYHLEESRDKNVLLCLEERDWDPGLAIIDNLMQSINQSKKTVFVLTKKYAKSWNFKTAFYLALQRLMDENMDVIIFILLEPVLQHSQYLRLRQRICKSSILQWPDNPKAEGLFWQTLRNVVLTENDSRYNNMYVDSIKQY
Description: IL-8 production in 293 cells transiently transfected with hTLR8. To be noted: 293 cells transfected with hTLR8; ODN 2 μM, LPS 100 ng/ml. The method, then: (§2) The cloned human TLR7 and human TLR8 cDNA (our result) were cloned into the expression vector pcDNA3.1 (−) from Invitrogen using the NotI site. Utilizing a “gain of function” assay, hTLR7 and hTLR8 expression vectors were transiently expressed in human 293 fibroblasts (ATCC, CRL-1573) using the calcium phosphate method. Activation was monitored by IL-8 production after stimulus with CpG-ODN (2006 or 1668, 2 μM) or LPS (100 ng/ml).

In a further data set the target is T2, hTLR7 (Homo sapiens, UniProt Q9NYK1).
T2 construct: codes for a protein of 1049 amino acids; expressed in transfected cells; host or cells: human 293 fibroblasts (ATCC CRL-1573), transient
T2 sequence (Q9NYK1 27-1049): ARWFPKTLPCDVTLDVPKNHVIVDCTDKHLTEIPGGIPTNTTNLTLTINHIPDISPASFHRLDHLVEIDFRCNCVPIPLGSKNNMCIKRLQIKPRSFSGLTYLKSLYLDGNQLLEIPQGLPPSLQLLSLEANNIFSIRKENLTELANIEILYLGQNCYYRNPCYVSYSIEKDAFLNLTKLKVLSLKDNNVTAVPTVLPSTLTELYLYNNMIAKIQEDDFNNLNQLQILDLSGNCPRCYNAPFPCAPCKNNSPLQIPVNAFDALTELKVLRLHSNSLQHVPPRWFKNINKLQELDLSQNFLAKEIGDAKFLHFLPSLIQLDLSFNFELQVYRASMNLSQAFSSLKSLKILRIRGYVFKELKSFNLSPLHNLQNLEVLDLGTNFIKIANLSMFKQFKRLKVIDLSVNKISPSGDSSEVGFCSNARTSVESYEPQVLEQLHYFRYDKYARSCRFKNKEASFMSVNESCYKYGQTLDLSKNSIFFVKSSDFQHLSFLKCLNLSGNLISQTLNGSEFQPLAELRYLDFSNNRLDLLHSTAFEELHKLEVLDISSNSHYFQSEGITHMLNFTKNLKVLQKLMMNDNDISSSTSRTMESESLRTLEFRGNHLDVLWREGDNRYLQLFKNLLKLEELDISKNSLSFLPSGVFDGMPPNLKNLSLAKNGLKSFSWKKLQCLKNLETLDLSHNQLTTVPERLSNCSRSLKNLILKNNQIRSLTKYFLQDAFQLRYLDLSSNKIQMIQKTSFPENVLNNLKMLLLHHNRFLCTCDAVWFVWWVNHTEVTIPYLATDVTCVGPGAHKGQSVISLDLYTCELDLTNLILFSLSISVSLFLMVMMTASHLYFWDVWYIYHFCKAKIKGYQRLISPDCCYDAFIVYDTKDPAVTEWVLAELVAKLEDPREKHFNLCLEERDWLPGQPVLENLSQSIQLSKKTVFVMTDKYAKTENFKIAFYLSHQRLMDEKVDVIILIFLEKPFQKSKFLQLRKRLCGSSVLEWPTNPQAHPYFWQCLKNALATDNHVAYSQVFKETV
Briefly: IL-8 production in 293 cells transiently transfected with hTLR7. Conditions: 293 cells transfected with hTLR7; ODN 2 μM, LPS 100 ng/ml. The method, then: as §2

In data set [1] the test system is Human peripheral blood mononuclear cells (PBMC). Description: IL-12 production in human PBMC. To be noted: ODN titration, after 8 hours.
Source text: as §1

On to “TCCATGACGTTCCTGATGCT (listed as DNA, chemistry not fully specified) [ODN 1668]”, for which the results for the IL-12 production result (in the data set with murine splenocytes; in data set [1]) were “induced optimal IL-12” and “much less effective”, respectively. Also, the “activation monitored by IL-8 production” value with hTLR8 and with hTLR7 was “None of the stimuli used activated” each time.
Consider “TCCATGAGCTTCCTGATGCT (listed as DNA, chemistry not fully specified) [ODN 1668-GC]”, for which, in data set [1], the IL-12 production entry was “essentially negative”.
With TCGTCGTTTTGTCGTTTTGTCGTT [ODN 2006], the results for the IL-12 production result (in the data set on murine splenocytes; in data set [1]) were “much less effective” and “induces IL-12 production”, respectively. Further, the “activation monitored by IL-8 production” value on hTLR8 and on hTLR7 was “None of the stimuli used activated” each time.
Consider “TGCTGCTTTTGTGCTTTTGTGCTT (listed as DNA, chemistry not fully specified) [ODN 2006-GC]”, for which, in data set [1], the IL-12 production entry is “essentially negative”.
For the substance lipopolysaccharide [LPS], the “activation monitored by IL-8 production” value at hTLR8 and on hTLR7 was “None of the stimuli used activated” throughout.
